Patent publication US5998596A, “Inhibition of protein kinase activity by aptameric action of oligonucleotides” (The United States of America as represented by the …)

What was measured:
p210^bcr-abl = assay: Inhibition of p210bcr-abl immunoprecipitation by BCR directed antibody clone 7C6; format: binding, human; conditions: 10 μM ODN added to K562 cell lysate, antibody clone 7C6, Western for phosphotyrosine
Protocol: FIG. 9C. Inhibition of p210^bcr-abl immunoprecipitation by T-21. […] T-21 was added to the lysate from 1×10^6 K562 cells (lane 2) and p210^bcr-abl immunoprecipitated with the BCR directed antibody, clone 7C6; no ODN was added to the lysate immunoprecipitated in lane 1. After extensive washing, the immunoprecipitates were separated on a 7% SDS polyacrylamide gel, transferred to nitrocellulose, and probed with an anti-phosphotyrosine antibody. Data are representative of at least two separate experiments.
In experiments designed to test the specificity of BCR-AS, an ODN composed solely of thymidylic acid residues (T-21) i.e., 5' […] 3' (SEQ ID NO.: 12) was capable of interfering with p210^bcr-abl immunoprecipitation. […] From the data in FIG. 9A, one can calculate an IC50 of less than 1 μM. […] This apparent discrepancy appears to be due to the ability of T-21 to inhibit precipitation of p210^bcr-abl by the BCR-directed antibody, clone 7C6. […] Inhibition of p210^bcr-abl immunoprecipitation was not seen with the other ODNs used in this study (data now shown).

[1] = tested on: p210^bcr-abl kinase in K562 cells; assay: Immunoprecipitation kinase assay of p210bcr-abl from ODN treated K562 cells; format: cell-based, human; conditions: K562 cells treated with T-21 overnight, washed, calculated from FIG. 9A, read-out: IC50 of apparent reduction of p210^bcr-abl kinase activity
Protocol: (§1) Immunoprecipitation kinase assays of p210^bcr-abl p145^abl were performed as described, with modifications (15). Briefly, for p210^bcr-abl, 1 μg of anti-bcr antibody (clone 7C6, Oncogene Science, Uniondale, N.Y.) was added to lysates prepared from 0.5-1×10^6 K562 cells. For p145^abl, 1 μg of anti-c-abl antibody (clone 24-21), which binds to the C-terminal domain of p145^abl, was added to lysates prepared from 5×10^6 PC3M cells. After incubating 1 hour at 4° C., complexes were precipitated by incubating with protein A-Sepharose coated with rabbit anti-mouse immunoglobulin (Cappel Research Products, Durham, N.C.) for 30 minutes. The complexes were then washed as follows: ABL lysis buffer×2, PBS×1, and ABL assay buffer×1 (24 mM imidazole, pH 7.2, 1 mg/ml bovine serum albumin, and 10 mM MnCl). For p145^abl assays ABL assay buffer contained 20 mM MnCl. To access the activity of p210^bcr-abl on substrate phosphorylation, acid inactivated enolase (Sigma Chemical Co., St. Louis, Mo.) was added as described (15).
(§2) ODNs were added to kinase reaction buffers not more than 5 minutes prior to the addition of ATP. Reactions were initiated by the addition of [γ^-32 P] ATP (3000 Ci/mmole; Amersham Corp., Arlington Heights, Ill.) and quenched by the addition of 5× gel loading buffer and heating to 95° C. Kinase reactions were run for 1-10 minutes at room temperature, except for EGFR, p145^abl, and MAP kinase, which were run at 30° C. The products were then electrophoresed on SDS-polyacrylamide gels: 7% for p210^bcr-abl, EGFR, and PDGFR, 8% for p145^abl, 10% for src, lck, and cdc-2 kinase, and 12% for MAP kinase. Gels were dried and reaction products were visualized by direct autoradiography at -70° C. with Kodak X-OMAT AR film. To determine the inhibitory concentration 50, i.e., the concentration required to inhibit enzyme activity by 50% (IC50) and Ki values, gel slices containing the band of interest were excised and analyzed by Cerenkov counting.
The effects of ODN1 on a cellular system were assessed. […] After 3 days, cells were washed and p210^bcr-abl kinase activity was measured. […] Neither cellular p210^bcr-abl protein content nor cell growth was affected by ODN treatment (data not shown).

p210^bcr-abl kinase = assay: Immunoprecipitation kinase assay of p210bcr-abl (autophosphorylation), ODN added to kinase reaction; format: biochemical, human; conditions: ODN at 1 μM added to the immunoprecipitated enzyme
Protocol: The p210^bcr-abl kinase, src kinase and cdc-2 kinase were immunoprecipitated from K562 cells. The p145^abl kinase was immunoprecipitated from PC3M cells, PDGF receptor kinase from 3T3 cells, and EGF receptor kinase from A431 cells. MAP kinase was utilized as a pure protein and lck kinase was immunoprecipitated from peripheral blood lymphocytes of a normal volunteer.
(§3) Cells were washed in phosphate buffered saline (PBS) and 0.5-5×10^6 cells were solubilized in 1 ml of the specified cell lysis buffers. Unless otherwise stated, all cell lysis buffers contained the following protease inhibitors: 20 μg/ml leupeptin, 1 μg/ml aprotinin, and 1 mM phenylmethylsulfonylfluroide. For p210^bcr-abl and […] immunoprecipitation, cells were lysed with ABL lysis buffer (25 mM imidazole, pH 7.2, 0.5% NP40, 50 mM NaCl, 1 mM Na3 VO4) and lysates were clarified at 14,000 g. 4° C. for 30 minutes. Cell lysis for all other proteins was performed according to the references describing the various immunoprecipitation kinase assays.
as §1, §2

[2] = target: p145 ABL tyrosine kinase (c-Abl) (UniProt P00519 P00519:1-1130); assay: inhibition; 20 mM Mn, 30 C; conditions: tags: immunoprecipitated from PC3M cells with anti-c-abl clone 24-21
Protocol: as §3, with “0.5–5×10^6” for “0.5-5×10^6”, “µg/ml” for “μg/ml”, “Na_3VO_4)” for “Na3 VO4)”
Immunoprecipitation kinase assays of p210^bcr-abl p145^abl were performed as described, with modifications (15). Briefly, for p210^bcr-abl, 1 µg of anti-bcr antibody (clone 7C6, Oncogene Science, Uniondale, N.Y.) was added to lysates prepared from 0.5–1×10^6 K562 cells. For p145^abl, 1 µg of anti-c-abl antibody (clone 24-21), which binds to the C-terminal domain of p145^abl, was added to lysates prepared from 5×10^6 PC3M cells. After incubating 1 hour at 4° C., complexes were precipitated by incubating with protein A-Sepharose coated with rabbit anti-mouse immunoglobulin (Cappel Research Products, Durham, N.C.) for 30 minutes. […]

p145 ABL tyrosine kinase (c-Abl), sequence (P00519 whole entry, one chain of several): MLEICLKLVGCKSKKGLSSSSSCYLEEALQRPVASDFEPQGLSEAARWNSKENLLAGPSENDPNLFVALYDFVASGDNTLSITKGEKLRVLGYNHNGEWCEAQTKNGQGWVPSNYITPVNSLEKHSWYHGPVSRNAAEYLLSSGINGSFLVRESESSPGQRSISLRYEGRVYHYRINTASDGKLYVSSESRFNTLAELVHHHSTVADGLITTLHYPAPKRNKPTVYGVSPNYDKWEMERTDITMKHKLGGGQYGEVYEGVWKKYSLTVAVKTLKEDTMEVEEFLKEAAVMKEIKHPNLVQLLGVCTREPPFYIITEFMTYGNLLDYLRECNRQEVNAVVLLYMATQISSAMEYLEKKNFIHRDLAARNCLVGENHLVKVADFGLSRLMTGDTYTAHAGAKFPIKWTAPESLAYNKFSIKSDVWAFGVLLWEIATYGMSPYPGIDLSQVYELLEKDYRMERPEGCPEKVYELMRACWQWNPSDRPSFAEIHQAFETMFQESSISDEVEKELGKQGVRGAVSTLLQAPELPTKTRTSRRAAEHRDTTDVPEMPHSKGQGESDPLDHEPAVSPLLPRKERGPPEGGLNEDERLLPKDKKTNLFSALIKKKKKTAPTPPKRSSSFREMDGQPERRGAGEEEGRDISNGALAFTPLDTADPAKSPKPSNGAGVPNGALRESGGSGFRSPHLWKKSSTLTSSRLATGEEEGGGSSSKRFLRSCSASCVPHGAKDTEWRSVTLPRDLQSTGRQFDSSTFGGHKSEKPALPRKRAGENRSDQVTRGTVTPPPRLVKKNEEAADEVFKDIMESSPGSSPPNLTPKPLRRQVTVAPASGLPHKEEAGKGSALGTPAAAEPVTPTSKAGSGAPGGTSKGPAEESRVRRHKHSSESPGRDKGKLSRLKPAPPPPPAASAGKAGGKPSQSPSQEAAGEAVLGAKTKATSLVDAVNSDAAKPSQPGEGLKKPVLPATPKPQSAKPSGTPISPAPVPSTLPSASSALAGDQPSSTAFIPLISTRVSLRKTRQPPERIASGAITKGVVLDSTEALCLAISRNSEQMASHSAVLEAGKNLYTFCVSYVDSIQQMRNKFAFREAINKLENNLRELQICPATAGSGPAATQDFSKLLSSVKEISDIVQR

Molecule | inhibition of p210^bcr-abl immunoprecipitation (p210^bcr-abl) | IC50 [1] [nM] | inhibition of p210^bcr-abl kinase activity in vitro (in words) (p210^bcr-abl kinase) | IC50 [2] [nM]
5' TTTTTTTTTTTTTTTTTTTTT 3' (chemistry not given here) [T-21, a 21mer composed solely of thymidylic acid residues] | nearly total inhibition | < 1000 | only moderate inhibition | 
GTCCACCATGGCGCGGCCGGC (ssDNA, PS, two linkages at each of 5' and 3' ends, rest phosphodiester) [ODN1 (BCR-AS), phosphorothioate capped] |  |  |  | 620
